{
  "source": "patent US8901118B2",
  "about": "“Compounds and methods for kinase modulation, and indications therefor” (Plexxikon Inc., priority 2010, dated 2014)",
  "key": {"BCR-KIT BaF3 cells": {"target": "T1, BCR-KIT BaF3 cells (Homo sapiens, UniProt P10721)", "T1 construct": "fused on or other part: P11274 (Breakpoint cluster region protein)", "T1 sequence (P10721 589-937)": "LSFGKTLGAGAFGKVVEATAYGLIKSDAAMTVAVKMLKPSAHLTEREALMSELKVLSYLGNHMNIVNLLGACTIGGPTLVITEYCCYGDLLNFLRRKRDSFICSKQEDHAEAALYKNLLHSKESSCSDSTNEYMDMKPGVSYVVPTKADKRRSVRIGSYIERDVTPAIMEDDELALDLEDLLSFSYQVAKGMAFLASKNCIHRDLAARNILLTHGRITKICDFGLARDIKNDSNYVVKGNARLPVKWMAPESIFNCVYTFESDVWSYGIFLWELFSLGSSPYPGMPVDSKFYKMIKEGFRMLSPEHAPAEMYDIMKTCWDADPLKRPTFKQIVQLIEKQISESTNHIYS", "experiment": "BaF3 BCR-KIT cell proliferation assay (ATPlite)", "format": "cell-based", "settings": "read-out: Inhibition of Cell Proliferation IC50, BCR/BaF3 Kit", "summary_of_the_method": "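Cells are plated overnight: BaF3 at 10,000/well in G418 medium without WEHI/IL-3, MV-4-11 at 25,000/well in IMDM with 10% FBS. An 8-point 1:3 compound titration (10 μM top) is then added, and plates are incubated 3 days at 37 °C before ATPlite readout and IC50 determination.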"}, "c-Kit kinase": {"target": "c-Kit kinase (Homo sapiens, UniProt P10721)", "sequence (P10721 26-976)": "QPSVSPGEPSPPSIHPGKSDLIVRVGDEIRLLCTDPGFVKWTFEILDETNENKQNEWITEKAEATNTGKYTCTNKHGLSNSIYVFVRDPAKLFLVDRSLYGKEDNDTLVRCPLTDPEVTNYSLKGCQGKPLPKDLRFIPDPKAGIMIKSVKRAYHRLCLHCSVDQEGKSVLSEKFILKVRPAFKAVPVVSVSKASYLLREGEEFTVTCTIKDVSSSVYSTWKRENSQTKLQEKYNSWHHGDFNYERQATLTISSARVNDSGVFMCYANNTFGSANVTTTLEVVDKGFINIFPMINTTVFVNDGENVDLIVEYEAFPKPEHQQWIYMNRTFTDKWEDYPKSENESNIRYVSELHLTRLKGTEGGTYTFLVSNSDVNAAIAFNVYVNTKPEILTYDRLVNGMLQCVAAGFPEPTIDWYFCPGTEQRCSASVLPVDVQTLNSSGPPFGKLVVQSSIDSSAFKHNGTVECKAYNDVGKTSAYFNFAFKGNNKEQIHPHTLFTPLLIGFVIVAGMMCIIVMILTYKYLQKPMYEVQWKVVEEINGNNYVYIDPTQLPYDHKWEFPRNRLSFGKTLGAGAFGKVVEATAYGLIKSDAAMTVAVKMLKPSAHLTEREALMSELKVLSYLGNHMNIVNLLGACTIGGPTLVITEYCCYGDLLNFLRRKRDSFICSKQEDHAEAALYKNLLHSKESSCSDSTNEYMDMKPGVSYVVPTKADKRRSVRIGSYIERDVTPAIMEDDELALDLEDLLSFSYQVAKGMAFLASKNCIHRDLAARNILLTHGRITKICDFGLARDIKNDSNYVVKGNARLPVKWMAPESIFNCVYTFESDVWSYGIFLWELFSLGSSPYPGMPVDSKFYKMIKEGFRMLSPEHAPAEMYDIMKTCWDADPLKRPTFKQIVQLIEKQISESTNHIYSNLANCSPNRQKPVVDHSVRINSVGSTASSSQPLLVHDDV", "experiment": "c-Kit kinase biochemical activity assay (AlphaScreen, biotin-(E4Y)10 phosphorylation)", "settings": "100 μM ATP; read-out: Biochemical Inhibition IC50 Kit", "summary_of_the_method": "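AlphaScreen read-out (streptavidin donor, anti-phosphotyrosine PY20 acceptor beads, EDTA stop) of c-Kit activity. Reaction: 0.75 ng kinase, 100 µM ATP, 30 nM biotin-(E4Y)10, 25 mM HEPES pH 7.5, 2 mM MgCl2, 2 mM MnCl2, 5% DMSO, 1 h room temperature. IC50 derived over an 8-point, two-fold dilution series.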"}},
  "data": [
    {"smiles": "COc1ccc(Nc2ccc(Cc3c[nH]c4ncnc(C5CC5)c34)c(F)n2)cn1", "note": "[Compound P-4023, [5-(4-cyclopropyl-7H-pyrrolo[2,3-d]pyrimidin-5-ylmethyl)-6-fluoro-pyridin-2-yl]-(6-methoxy-pyridin-3-yl)-amine]", "values": [
      {"measurement": "IC50", "setting": "BCR-KIT BaF3 cells", "result": "< 1000", "unit": "nM"},
      {"measurement": "IC50", "setting": "c-Kit kinase", "result": "< 1000", "unit": "nM"}
    ]},
    {"smiles": "CCOc1ccc(Nc2ccc(C(=O)c3c[nH]c4ncnc(OC)c34)c(F)n2)cn1", "note": "[Compound P-4024, [6-(6-Ethoxy-pyridin-3-ylamino)-2-fluoro-pyridin-3-yl]-(4-methoxy-7H-pyrrolo[2,3-d]pyrimidin-5-yl)-methanone]", "values": [
      {"measurement": "IC50", "setting": "BCR-KIT BaF3 cells", "result": "< 1000", "unit": "nM"},
      {"measurement": "IC50", "setting": "c-Kit kinase", "result": "< 1000", "unit": "nM"}
    ]},
    {"smiles": "CCOc1ncnc2[nH]cc(C(=O)c3ccc(Nc4ccc(OC)nc4)nc3F)c12", "note": "[Compound P-4025, (4-Ethoxy-7H-pyrrolo[2,3-d]pyrimidin-5-yl)-[2-fluoro-6-(6-methoxy-pyridin-3-ylamino)-pyridin-3-yl]-methanone]", "values": [
      {"measurement": "IC50", "setting": "BCR-KIT BaF3 cells", "result": "> 1000", "unit": "nM"},
      {"measurement": "IC50", "setting": "c-Kit kinase", "result": "> 1000", "unit": "nM"}
    ]},
    {"smiles": "CCOc1ccc(Nc2ccc(Cc3c[nH]c4ncnc(C5CC5)c34)c(F)n2)cn1", "note": "[Compound P-4026, [5-(4-Cyclopropyl-7H-pyrrolo[2,3-d]pyrimidin-5-ylmethyl)-6-fluoro-pyridin-2-yl]-(6-ethoxy-pyridin-3-yl)-amine]", "values": [
      {"measurement": "IC50", "setting": "BCR-KIT BaF3 cells", "result": "< 1000", "unit": "nM"},
      {"measurement": "IC50", "setting": "c-Kit kinase", "result": "< 1000", "unit": "nM"}
    ]},
    {"smiles": "CCOc1ccc(Nc2ccc(C(=O)c3c[nH]c4ncnc(C5CC5)c34)c(F)n2)cn1", "note": "[Compound P-4027, (4-Cyclopropyl-7H-pyrrolo[2,3-d]pyrimidin-5-yl)-[6-(6-ethoxy-pyridin-3-ylamino)-2-fluoro-pyridin-3-yl]-methanone]", "values": [
      {"measurement": "IC50", "setting": "BCR-KIT BaF3 cells", "result": "< 1000", "unit": "nM"},
      {"measurement": "IC50", "setting": "c-Kit kinase", "result": "< 100", "unit": "nM"}
    ]},
    {"smiles": "CCc1ccc(Nc2ccc(Cc3c[nH]c4ncnc(C5CC5)c34)c(F)n2)cn1", "note": "[Compound P-4028, [5-(4-Cyclopropyl-7H-pyrrolo[2,3-d]pyrimidin-5-ylmethyl)-6-fluoro-pyridin-2-yl]-(6-ethyl-pyridin-3-yl)-amine]", "values": [
      {"measurement": "IC50", "setting": "BCR-KIT BaF3 cells", "result": "< 1000", "unit": "nM"},
      {"measurement": "IC50", "setting": "c-Kit kinase", "result": "< 100", "unit": "nM"}
    ]},
    {"smiles": "CCc1ccc(Nc2ccc(C(=O)c3c[nH]c4ncnc(C5CC5)c34)c(F)n2)cn1", "note": "[Compound P-4029, (4-Cyclopropyl-7H-pyrrolo[2,3-d]pyrimidin-5-yl)-[6-(6-ethyl-pyridin-3-ylamino)-2-fluoro-pyridin-3-yl]-methanone]", "values": [
      {"measurement": "IC50", "setting": "BCR-KIT BaF3 cells", "result": "< 100", "unit": "nM"},
      {"measurement": "IC50", "setting": "c-Kit kinase", "result": "< 100", "unit": "nM"}
    ]},
    {"smiles": "Cc1ccc(Nc2ccc(Cc3c[nH]c4ncnc(C5CC5)c34)c(F)n2)cn1", "note": "[Compound P-4030, [5-(4-Cyclopropyl-7H-pyrrolo[2,3-d]pyrimidin-5-ylmethyl)-6-fluoro-pyridin-2-yl]-(6-methyl-pyridin-3-yl)-amine]", "values": [
      {"measurement": "IC50", "setting": "BCR-KIT BaF3 cells", "result": "< 1000", "unit": "nM"},
      {"measurement": "IC50", "setting": "c-Kit kinase", "result": "< 1000", "unit": "nM"}
    ]},
    {"smiles": "Cc1ccc(Nc2ccc(C(=O)c3c[nH]c4ncnc(C5CC5)c34)c(F)n2)cn1", "note": "[Compound P-4031, (4-Cyclopropyl-7H-pyrrolo[2,3-d]pyrimidin-5-yl)-[2-fluoro-6-(6-methyl-pyridin-3-ylamino)-pyridin-3-yl]-methanone]", "values": [
      {"measurement": "IC50", "setting": "BCR-KIT BaF3 cells", "result": "< 1000", "unit": "nM"},
      {"measurement": "IC50", "setting": "c-Kit kinase", "result": "< 100", "unit": "nM"}
    ]},
    {"smiles": "CCOc1ccc(Nc2ccc(C(=O)c3c[nH]c4ncnc(C)c34)c(F)n2)cn1", "note": "[Compound P-4032, [6-(6-Ethoxy-pyridin-3-ylamino)-2-fluoro-pyridin-3-yl]-(4-methyl-7H-pyrrolo[2,3-d]pyrimidin-5-yl)-methanone]", "values": [
      {"measurement": "IC50", "setting": "BCR-KIT BaF3 cells", "result": "< 1000", "unit": "nM"},
      {"measurement": "IC50", "setting": "c-Kit kinase", "result": "< 100", "unit": "nM"}
    ]},
    {"smiles": "CCn1cc(Nc2ccc(Cc3c[nH]c4ncnc(C5CC5)c34)c(F)n2)cn1", "note": "[Compound P-4036, [5-(4-Cyclopropyl-7H-pyrrolo[2,3-d]pyrimidin-5-ylmethyl)-6-fluoro-pyridin-2-yl]-(1-ethyl-1H-pyrazol-4-yl)-amine]", "values": [
      {"measurement": "IC50", "setting": "BCR-KIT BaF3 cells", "result": "< 1000", "unit": "nM"},
      {"measurement": "IC50", "setting": "c-Kit kinase", "result": "< 1000", "unit": "nM"}
    ]},
    {"smiles": "CCn1cc(Nc2ccc(C(=O)c3c[nH]c4ncnc(C5CC5)c34)c(F)n2)cn1", "note": "[Compound P-4037, (4-Cyclopropyl-7H-pyrrolo[2,3-d]pyrimidin-5-yl)-[6-(1-ethyl-1H-pyrazol-4-ylamino)-2-fluoro-pyridin-3-yl]-methanone]", "values": [
      {"measurement": "IC50", "setting": "BCR-KIT BaF3 cells", "result": "< 100", "unit": "nM"},
      {"measurement": "IC50", "setting": "c-Kit kinase", "result": "< 1000", "unit": "nM"}
    ]}
  ]
}
